In patent US9957298B2, “Peptides as oxytocin agonists” (Hoffmann-La Roche Inc., priority 2014, dated 2018):
Starred links: 1 amine or outer side, 2 acyl side, 3 side chain; linkers in the order of their positions; H or OH if unused. Positions of bridges follow the written chain, without caps; N, C: chain ends. Non-standard residues stand in square brackets, D forms with d. Residues, ends and D or L forms follow the SMILES beside them. d(αMeL) = CC(C)C[C@@](C)(N)C(=O)O; 2Thi = N[C@@H](Cc1cccs1)C(=O)O; Cha = N[C@@H](CC1CCCCC1)C(=O)O; αMeL = CC(C)C[C@](C)(N)C(=O)O; Suc = O=C(CCC(=O)[*:2])[*:1]; NcPrGly = O=C(O)CNC1CC1; Dap = NC[C@H](N)C(=O)O; Aib = CC(C)(N)C(=O)O; Sar = CNCC(=O)O

Biological target: T1, human Oxytocin (OTR) receptor (Homo sapiens, UniProt P30559)
T1 construct: expressed in transfected cells
T1 sequence (P30559 1-389): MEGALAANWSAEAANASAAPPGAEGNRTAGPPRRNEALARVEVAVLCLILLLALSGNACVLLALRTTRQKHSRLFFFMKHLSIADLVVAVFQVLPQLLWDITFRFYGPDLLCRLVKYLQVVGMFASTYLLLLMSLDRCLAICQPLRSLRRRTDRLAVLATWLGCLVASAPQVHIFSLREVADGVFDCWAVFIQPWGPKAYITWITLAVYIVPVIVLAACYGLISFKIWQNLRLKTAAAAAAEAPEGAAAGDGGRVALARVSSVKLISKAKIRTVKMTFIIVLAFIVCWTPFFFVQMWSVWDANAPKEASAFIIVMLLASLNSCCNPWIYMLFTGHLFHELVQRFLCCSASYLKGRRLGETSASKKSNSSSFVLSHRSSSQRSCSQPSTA
Assay: Calcium flux assay (FLIPR), agonist mode, CHO cells expressing human oxytocin receptor
Type: cell-based
Conditions: for EC50: CHO cells, human OTR, calcium flux FLIPR, read-out: hOT EC50; for hOT efficacy (%) / Emax: maximum response normalized to endogenous full agonist = 100%; for Emax: CHO, read-out: hOT efficacy (%)
Excerpt: Chines Hamster Ovary (CHO) cells were transfected with expression plasmids encoding either the human V1a, the human Oxytocin (OTR) or the human V2 receptor, the later in combination with the chimeric Gqs5 G protein to redirect the signal to Calcium flux. Stable cells were cloned by limiting dilution to yield monoclonal cell lines expressing either human V1a, human V2+Gqs5 or human OTR receptors and selected based on functional responses detected on a fluorometric imaging plate reader (FLIPR) detecting Calcium flux in the cell after receptor activation. The stable cell lines were grown in F-12 K Nutrient Mixture (Kaighns Modification), containing 10% foetal bovine serum (FBS), 1% penicillin-streptomycin, 1% L-[…], 200 ug/ml Geneticin at 37° C. in a 10% CO2 incubator at 95% humidity.
On the afternoon before the assay, cells were plated at a density of 50,000 cells/well into black 96 well plates with clear bottoms to allow cell inspection and fluorescence measurements from the bottom of each well. The density of cells was sufficient to yield a confluent monolayer the next day. Hanks balanced salt solution, without phenol red, containing 20 mM HEPES (pH 7.3) and 2.5 mM probenecid (assay buffer) was prepared fresh for each experiment. Compound dilutions were made using a Beckman Biomek 2000 laboratory automation workstation, in assay buffer containing 1% DMSO. The dye-loading buffer consisted of a final concentration of 2 μM Fluo-4-AM (dissolved in DMSO and pluronic acid) in assay buffer. The existing culture media was removed from the wells and 100 μl of the dye-loading buffer was added to each well and incubated for approximately 60 min at 37° C. in a 5% CO2 incubator at 95% humidity. Once dye-loaded, the cells were washed thoroughly on an Embla cell washer with the assay buffer to remove any unincorporated dye. Exactly 100 μl assay buffer was left in each well.
Each 96 well plate containing dye-loaded cells was placed into the FLIPR machine and the laser intensity set to a suitable level to detect low basal fluorescence. To test compounds as agonists, 25 μl diluted compound was added to the plate 10 seconds into the fluorescent measurements and fluorescent response was recorded for 5 minutes. The fluorescence data was normalized to the endogenous full agonist dose-response set at 100% for the maximum response and 0% for the minimum. Each agonist concentration-response curve was constructed using a four parameter logistic equation with Microsoft Excel XLFit as follows: Y=Minimum+((Maximum−Minimum)/(1+10^(LogEC50-X)nH)), where y is the % normalized fluorescence, minimum is the minimum y, maximum is the maximum y, logEC50 is the log10 concentration which produces 50% of the maximum induced fluorescence, x is the log10 of the concentration of the agonist compound and H is the slope of the curve (the Hill Coefficient). The maximum value gives the efficacy of the agonist test compound in percentage. The concentration of agonist that produced a half-maximal response is represented by the EC50 value, the logarithm of which yielded the pEC50 value.

| SMILES | EC50 [nM] | hOT efficacy (%) | Emax [%] |
| --- | --- | --- | --- |
| CC[C@H](C)[C@@H]1NC(=O)[C@H](Cc2ccc(O)cc2)NC(=O)CCC(=O)NC[C@@H](C(=O)N(CC(=O)N[C@](C)(CC(C)C)C(=O)NCC(N)=O)C2CC2)NC(=O)[C@H](CC(N)=O)NC(=O)[C@H](CCC(N)=O)NC1=O [Example 39] (YIQN[Dap][NcPrGly][d(αMeL)]G-NH2; linker N-5 via Suc) | 1.3 |  | 108 |
| CC[C@H](C)[C@@H]1NC(=O)[C@H](Cc2ccc(O)cc2)NC(=O)CCC(=O)NC[C@@H](C(=O)N(C)CC(=O)N[C@@](C)(CC(C)C)C(=O)NCC(N)=O)NC(=O)[C@H](CC(N)=O)NC(=O)[C@H](CCC(N)=O)NC1=O [Example 23] (YIQN[Dap][Sar][αMeL]G-NH2; linker N-5 via Suc) | 3 | 123 |  |
| CC[C@H](C)[C@@H]1NC(=O)[C@H](Cc2ccc(O)cc2)NC(=O)CCC(=O)NC[C@@H](C(=O)N(CC(=O)NC(C)(C)C(=O)NCC(N)=O)C2CC2)NC(=O)[C@H](CC(N)=O)NC(=O)[C@H](CCC(N)=O)NC1=O [Example 41] (YIQN[Dap][NcPrGly][Aib]G-NH2; linker N-5 via Suc) | 2.5 |  | 108 |
| CC[C@H](C)[C@@H]1NC(=O)[C@H](Cc2ccc(O)cc2)NC(=O)CCC(=O)NC[C@@H](C(=O)N(C)CC(=O)N[C@@H](CO)C(=O)NCC(N)=O)NC(=O)[C@H](CC(N)=O)NC(=O)[C@H](CCC(N)=O)NC1=O [Example 30] (YIQN[Dap][Sar]SG-NH2; linker N-5 via Suc) | 2 | 109 |  |
| CC[C@H](C)[C@@H]1NC(=O)[C@H](Cc2ccc(O)cc2)NC(=O)CCC(=O)NC[C@@H](C(=O)N(C)CC(=O)N[C@@H](Cc2cnc[nH]2)C(=O)NCC(N)=O)NC(=O)[C@H](CC(N)=O)NC(=O)[C@H](CCC(N)=O)NC1=O [Example 35] (YIQN[Dap][Sar]HG-NH2; linker N-5 via Suc) | 4 | 111 |  |
| CC[C@H](C)[C@@H]1NC(=O)[C@H](Cc2ccc(O)cc2)NC(=O)CCC(=O)NC[C@@H](C(=O)N(CC(=O)N[C@H](C(=O)NCC(N)=O)[C@@H](C)O)C2CC2)NC(=O)[C@H](CC(N)=O)NC(=O)[C@H](CCC(N)=O)NC1=O [Example 44] (YIQN[Dap][NcPrGly]TG-NH2; linker N-5 via Suc) | 0.9 |  | 115 |
| CC[C@H](C)[C@@H]1NC(=O)[C@H](Cc2ccc(O)cc2)NC(=O)CCC(=O)NC[C@@H](C(=O)N(CC(=O)N[C@@H](CO)C(=O)NCC(N)=O)C2CC2)NC(=O)[C@H](CC(N)=O)NC(=O)[C@H](CCC(N)=O)NC1=O [Example 45] (YIQN[Dap][NcPrGly]SG-NH2; linker N-5 via Suc) | 0.8 |  | 117 |
| CC[C@H](C)[C@@H]1NC(=O)[C@H](Cc2ccc(O)cc2)NC(=O)CCC(=O)NC[C@@H](C(=O)N(CC(=O)N[C@@H](C(=O)NCC(N)=O)C(C)C)C2CC2)NC(=O)[C@H](CC(N)=O)NC(=O)[C@H](CCC(N)=O)NC1=O [Example 40] (YIQN[Dap][NcPrGly][dV]G-NH2; linker N-5 via Suc) | 0.6 |  | 106 |

The next lines start with the values.

| EC50 [nM] | hOT efficacy (%) | Emax [%] | SMILES |
| --- | --- | --- | --- |
| 3 | 111 |  | CC[C@H](C)[C@@H]1NC(=O)[C@H](Cc2ccc(O)cc2)NC(=O)CCC(=O)NC[C@@H](C(=O)N(C)CC(=O)N[C@@H](Cc2ccccc2)C(=O)NCC(N)=O)NC(=O)[C@H](CC(N)=O)NC(=O)[C@H](CCC(N)=O)NC1=O [Example 33] (YIQN[Dap][Sar]FG-NH2; linker N-5 via Suc) |
| 4 | 126 |  | CC[C@H](C)[C@@H]1NC(=O)[C@H](Cc2ccc(O)cc2)NC(=O)CCC(=O)NC[C@@H](C(=O)N2CCC[C@H]2C(=O)N[C@@H](Cc2cccs2)C(=O)NCC(N)=O)NC(=O)[C@H](CC(N)=O)NC(=O)[C@H](CCC(N)=O)NC1=O [Example 21] (YIQN[Dap]P[2Thi]G-NH2; linker N-5 via Suc) |
| 1.6 |  | 130 | CC[C@H](C)[C@@H]1NC(=O)[C@H](Cc2ccc(O)cc2)NC(=O)CCC(=O)NC[C@@H](C(=O)N2CCC[C@H]2C(=O)N[C@H](C(=O)NCC(N)=O)C(C)C)NC(=O)[C@H](CC(N)=O)NC(=O)[C@H](CCC(N)=O)NC1=O [Example 12] (YIQN[Dap]PVG-NH2; linker N-5 via Suc) |
| 2 | 130 |  | CC[C@H](C)[C@@H]1NC(=O)[C@H](Cc2ccc(O)cc2)NC(=O)CCC(=O)NC[C@@H](C(=O)N2CCC[C@H]2C(=O)N[C@@H](CC2CCCCC2)C(=O)NCC(N)=O)NC(=O)[C@H](CC(N)=O)NC(=O)[C@H](CCC(N)=O)NC1=O [Example 18] (YIQN[Dap]P[Cha]G-NH2; linker N-5 via Suc) |
| 1 | 134 |  | CC[C@H](C)[C@@H]1NC(=O)[C@H](Cc2ccc(O)cc2)NC(=O)CCC(=O)NC[C@@H](C(=O)N2CCC[C@H]2C(=O)N[C@@H](CCSC)C(=O)NCC(N)=O)NC(=O)[C@H](CC(N)=O)NC(=O)[C@H](CCC(N)=O)NC1=O [Example 8] (YIQN[Dap]PMG-NH2; linker N-5 via Suc) |
| 4 | 100 |  | CC[C@H](C)[C@@H]1NC(=O)[C@H](Cc2ccc(O)cc2)NC(=O)CCC(=O)NC[C@@H](C(=O)N2CCC[C@H]2C(=O)N[C@@H](Cc2c[nH]c3ccccc23)C(=O)NCC(N)=O)NC(=O)[C@H](CC(N)=O)NC(=O)[C@H](CCC(N)=O)NC1=O [Example 16] (YIQN[Dap]PWG-NH2; linker N-5 via Suc) |
| 2 | 111 |  | CC[C@H](C)[C@@H]1NC(=O)[C@H](Cc2ccc(O)cc2)NC(=O)CCC(=O)NC[C@@H](C(=O)N(C)CC(=O)N[C@@H](Cc2c[nH]c3ccccc23)C(=O)NCC(N)=O)NC(=O)[C@H](CC(N)=O)NC(=O)[C@H](CCC(N)=O)NC1=O [Example 36] (YIQN[Dap][Sar]WG-NH2; linker N-5 via Suc) |
| 1 | 132 |  | CC[C@H](C)[C@@H]1NC(=O)[C@H](Cc2ccc(O)cc2)NC(=O)CCC(=O)NC[C@@H](C(=O)N2CCC[C@H]2C(=O)N[C@H](C(=O)NCC(N)=O)[C@@H](C)CC)NC(=O)[C@H](CC(N)=O)NC(=O)[C@H](CCC(N)=O)NC1=O [Example 9] (YIQN[Dap]PIG-NH2; linker N-5 via Suc) |
| 3 | 128 |  | CC[C@H](C)[C@@H]1NC(=O)[C@H](Cc2ccc(O)cc2)NC(=O)CCC(=O)NC[C@@H](C(=O)N2CCC[C@H]2C(=O)N[C@@H](CO)C(=O)NCC(N)=O)NC(=O)[C@H](CC(N)=O)NC(=O)[C@H](CCC(N)=O)NC1=O [Example 11] (YIQN[Dap]PSG-NH2; linker N-5 via Suc) |
| 1 | 130 |  | CC[C@H](C)[C@@H]1NC(=O)[C@H](Cc2ccc(O)cc2)NC(=O)CCC(=O)NC[C@@H](C(=O)N2CCC[C@H]2C(=O)N[C@H](C(=O)NCC(N)=O)[C@@H](C)O)NC(=O)[C@H](CC(N)=O)NC(=O)[C@H](CCC(N)=O)NC1=O [Example 10] (YIQN[Dap]PTG-NH2; linker N-5 via Suc) |
| 6 | 122 |  | CC[C@H](C)[C@@H]1NC(=O)[C@H](Cc2ccc(O)cc2)NC(=O)CCC(=O)NC[C@@H](C(=O)N2CCC[C@H]2C(=O)N[C@@H](Cc2ccccc2)C(=O)NCC(N)=O)NC(=O)[C@H](CC(N)=O)NC(=O)[C@H](CCC(N)=O)NC1=O [Example 14] (YIQN[Dap]PFG-NH2; linker N-5 via Suc) |
